Literature values as cited in US12502363B2, “Ketamine and ketamine/nap for treatment of ADNP syndrome and related neurological conditions” (ADNP Kids Research Foundation, priority 2019, dated 2025).

Legend:
[1] = system: ADNP gene expression in the somatosensory cortex; settings: somatosensory cortex of post-natal day 7 rats, anesthetic dose of ketamine (20 mg/kg), microarray
[2] = system: activated caspase-3 (AC3); settings: anesthetic doses of ketamine
[3] = system: ADNP; settings: 5 mg/kg ketamine, healthy rats without ADNP mutations

## CNC1(c2ccccc2Cl)CCCCC1=O (stereo not drawn) [ketamine, Ketamine]
[1]
  ADNP gene expression: increases significantly
[2]
  levels of pro-apoptotic enzyme activated caspase-3 (AC3): increased levels
[3]
  ADNP in the Fasciola Cinereum (FC) and SSC layers II/III: increased ADNP
